Measurements reported in patent publication US20090048449A1, “RIMONABANT MONOHYDRATE, PROCESS FOR THE PREPARATION THEREOF AND PHARMACEUTICAL COMPOSITIONS CONTAINING SAME” (SANOFI-AVENTIS, priority 2006, published 2009).
Each block holds one molecule with its values, some of them ahead of it.

Columns and labels:
Format in all cases: physicochemical
[1] = Flowability of the crystal forms by flowability / compressibility / Carr index; settings: for Carr index: tap and bulk densities in graduated cylinder, data at 10 and 1250 taps, <=20% good powder flow, >21% passable to very difficult
Procedure: The flowability of the rimonabant monohydrate crystal form was measured and compared to that of the rimonabant crystal form II. The flowability of the crystal forms is measured by the flowability index or compressibility index or Carr index as described in R. L. Carr: Evaluation of flow properties of solids, Chem. Eng., 1965, 163-168 and also in the European Pharmacopeia.
The flowability index is calculated according to the following equation: IC=100×(ρt−ρb)/ρt where ρt is the tap density and ρb is the bulk density. This index is considered to be good if it is less than 20.
The densities are determined experimentally by packing the product into a graduated cylinder according to the procedure described in the European Pharmacopeia. The densities are determined after 10, 500, 1250 and 2500 taps. The Carr index is determined from the data measured at 10 and 1250 taps.
A Carr index less than or equal to 20% is considered as corresponding to a good powder flow, whereas a Carr index greater than 21% is considered as corresponding to a passable, even difficult or very difficult, powder flow.

[2] = Filterability: specific resistance of the filter cake; settings: filtering crystals from the solution in which they were formed; comparison with form I and form II
Excerpt: The improvement in filterability allows the filtration step to be shortened and leads to a significant improvement in the texture of the filter cake which is characterized by a low moisture content of the powder before drying and a low degree of residual solvent before drying. The resulting powder after drying has improved physical properties, especially in terms of flowability and therefore of handleability.

[3] = Water vapor sorption/desorption at 25° C. (SGA100 analyzer); settings: sorption cycle 0-100% RH at 25° C. after degassing the monohydrate at 80° C. for 3 hours (water of hydration lost)
Procedure: Analysis of water vapor sorption/desorption measurements was carried out on the rimonabant monohydrate crystal form on a SGA100 analyzer sold by VTI (USA). It was operated between 0% and 100% relative humidity at 25° C. after degassing the monohydrate form at 80° C. for 3 hours. The rimonabant monohydrate loses its water of hydration molecule during drying at 80° C. During the water vapor sorption cycle, the conversion of the rimonabant into rimonabant monohydrate occurs starting from 40% relative humidity. The sorption/desorption isotherm is represented in FIG. 4.

Flowability corresponding to the Carr index (in words) ([1]; Carr index measured, only class in words printed): very difficult flowability
Structure (SMILES): Cc1c(C(=O)NN2CCCCC2)nn(-c2ccc(Cl)cc2Cl)c1-c1ccc(Cl)cc1 [rimonabant crystal form I, N-piperidino-5-(4-chlorophenyl)-1-(2,4-dichlorophenyl)-4-methylpyrazole-3-carboxamide]

Carr index [1]: around 38%
Structure (SMILES): Cc1c(C(=O)NN2CCCCC2)nn(-c2ccc(Cl)cc2Cl)c1-c1ccc(Cl)cc1 [rimonabant crystal form II, N-piperidino-5-(4-chlorophenyl)-1-(2,4-dichlorophenyl)-4-methylpyrazole-3-carboxamide]

Carr index [1]: 20%
Structure (SMILES): Cc1c(C(=O)NN2CCCCC2)nn(-c2ccc(Cl)cc2Cl)c1-c1ccc(Cl)cc1 [rimonabant monohydrate crystal form]
Specific resistance of the filter cake [2]: less than that measured for rimonabant crystal form I and crystal form II

Relative humidity from which conversion of rimonabant into rimonabant monohydrate occurs [3]: ≥ 40 % relative humidity
Structure (SMILES): Cc1c(C(=O)NN2CCCCC2)nn(-c2ccc(Cl)cc2Cl)c1-c1ccc(Cl)cc1 [rimonabant, N-piperidino-5-(4-chlorophenyl)-1-(2,4-dichlorophenyl)-4-methylpyrazole-3-carboxamide]
